Our source for the IC50 values is US11884661B2, “3-substituted propionic acids as αV integrin inhibitors” (BRISTOL-MYERS SQUIBB COMPANY, priority 2016, dated 2024).

Molecules are shown by their SMILES.

The target in the assay is T1, human αVβ6 (Homo sapiens, UniProt P06756+P18564).
T1 construct: purchased R & D systems 3817-AV
T1 sequence (P06756 31-992 limits assumed): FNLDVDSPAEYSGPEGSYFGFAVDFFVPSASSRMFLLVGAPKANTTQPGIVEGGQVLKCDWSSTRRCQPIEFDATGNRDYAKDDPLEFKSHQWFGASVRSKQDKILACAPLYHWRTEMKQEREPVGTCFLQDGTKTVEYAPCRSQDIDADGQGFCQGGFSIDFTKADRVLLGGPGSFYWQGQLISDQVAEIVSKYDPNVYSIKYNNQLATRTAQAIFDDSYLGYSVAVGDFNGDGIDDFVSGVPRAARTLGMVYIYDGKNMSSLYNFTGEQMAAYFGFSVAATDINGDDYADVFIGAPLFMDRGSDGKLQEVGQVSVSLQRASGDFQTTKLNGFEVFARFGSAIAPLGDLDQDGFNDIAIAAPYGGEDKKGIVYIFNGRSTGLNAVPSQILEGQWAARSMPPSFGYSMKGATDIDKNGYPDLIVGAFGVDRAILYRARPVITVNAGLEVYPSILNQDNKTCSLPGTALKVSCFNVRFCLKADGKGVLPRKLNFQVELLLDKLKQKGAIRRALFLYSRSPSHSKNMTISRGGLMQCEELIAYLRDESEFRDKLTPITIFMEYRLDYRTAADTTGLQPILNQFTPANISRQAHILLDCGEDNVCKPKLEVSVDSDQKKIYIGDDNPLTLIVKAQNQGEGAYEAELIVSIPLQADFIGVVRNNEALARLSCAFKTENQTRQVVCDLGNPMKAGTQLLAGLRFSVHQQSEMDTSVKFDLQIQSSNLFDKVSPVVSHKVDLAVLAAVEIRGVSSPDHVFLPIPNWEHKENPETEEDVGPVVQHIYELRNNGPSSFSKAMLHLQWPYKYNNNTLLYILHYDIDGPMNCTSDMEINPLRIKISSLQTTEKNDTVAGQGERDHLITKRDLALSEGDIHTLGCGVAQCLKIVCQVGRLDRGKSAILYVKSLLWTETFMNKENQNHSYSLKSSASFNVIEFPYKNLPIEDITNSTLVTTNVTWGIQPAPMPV
T1 sequence (P18564 22-707 limits assumed): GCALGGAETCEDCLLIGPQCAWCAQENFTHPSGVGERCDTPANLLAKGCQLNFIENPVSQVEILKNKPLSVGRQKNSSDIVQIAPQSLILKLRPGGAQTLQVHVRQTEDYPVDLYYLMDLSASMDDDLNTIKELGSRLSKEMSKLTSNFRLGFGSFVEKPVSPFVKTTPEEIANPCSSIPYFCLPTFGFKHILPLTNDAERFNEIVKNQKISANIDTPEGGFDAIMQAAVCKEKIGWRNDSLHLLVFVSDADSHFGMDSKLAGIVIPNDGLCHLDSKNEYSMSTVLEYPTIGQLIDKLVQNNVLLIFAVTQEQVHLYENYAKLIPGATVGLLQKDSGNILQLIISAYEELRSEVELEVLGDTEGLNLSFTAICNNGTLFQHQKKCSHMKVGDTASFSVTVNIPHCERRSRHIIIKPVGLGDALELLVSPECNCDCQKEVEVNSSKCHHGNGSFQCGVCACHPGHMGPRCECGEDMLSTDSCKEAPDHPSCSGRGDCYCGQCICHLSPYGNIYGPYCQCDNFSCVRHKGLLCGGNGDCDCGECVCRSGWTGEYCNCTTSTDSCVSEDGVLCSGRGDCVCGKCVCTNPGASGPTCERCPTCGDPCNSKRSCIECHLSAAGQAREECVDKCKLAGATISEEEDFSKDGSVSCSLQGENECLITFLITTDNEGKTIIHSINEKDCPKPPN
Nature of the assay: human αVβ6 HTRF binding assay. Conditions: recombinant human αVβ6 integrin, FITC-conjugated fibronectin. In a few lines: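 Biotinylated recombinant αVβ6 (1.25 nM final) incubated with FITC-fibronectin (5 nM) 1 h at RT, then streptavidin-terbium (0.625 nM) added and incubated overnight at RT in the dark before HTRF read. Buffer: 20 mM Tris pH 7.4, 1 mM MgCl2, 1 mM MnCl2, 0.01% Tween 20, 0.01% BSA.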
Take `COc1ccc(C(CC(=O)O)n2ccc(CCCc3ccc4c(n3)NCCCC4)n2)cn1` (single isomer, unassigned) [Example 101, 3-(6-methoxypyridin-3-yl)-3-(3-(3-(6,7,8,9-tetrahydro-5H-pyrido[2,3-b]azepin-2-yl)propyl)-1H-pyrazol-1-yl)propanoic acid]: the IC50 is 4.3 nM.

As to `O=C(O)CC(c1cncc(N2CCCC2)c1)n1ccc(CCCc2ccc3c(n2)NCCC3)n1` (racemic) [Example 66, (±)-3-[5-(pyrrolidin-1-yl)pyridin-3-yl]-3-{3-[3-(5,6,7,8-tetrahydro-1,8-naphthyridin-2-yl)propyl]-1H-pyrazol-1-yl}propanoic acid], the IC50 turned out to be 21 nM.

Regarding `COc1ccc(C(CC(=O)O)c2cc(CCCc3ccc4c(n3)NCCC4)[nH]n2)cc1F` (stereo not shown) [Example 116, 3-(3-Fluoro-4-methoxyphenyl)-3-(5-(3-(5,6,7,8-tetrahydro-1,8-naphthyridin-2-yl)propyl)-1H-pyrazol-3-yl)propanoic acid], the IC50 turned out to be 47 nM.

For `COc1ccc(C(CC(=O)O)n2ncc(CCCc3ccc4c(n3)NCCC4)n2)cn1` (single isomer, unassigned) [Example 171, 3-(6-methoxypyridin-3-yl)-3-(4-(3-(5,6,7,8-tetrahydro-1,8-naphthyridin-2-yl)propyl)-2H-1,2,3-triazol-2-yl)propanoic acid], the IC50 stood at 27 nM.

On to `COCCOc1cncc(C(CC(=O)O)n2ccc(CCCc3ccc4c(n3)NCCC4)n2)c1` (single isomer, unassigned) [Example 80, 3-(5-(2-methoxyethoxy)pyridin-3-yl)-3-(3-(3-(5,6,7,8-tetrahydro-1,8-naphthyridin-2-yl)propyl)-1H-pyrazol-1-yl)propanoic acid], for which the IC50 was determined as 1.8 nM.

Consider `COc1ccc(C(CC(=O)O)c2ncc(CCCCc3ccc4c(n3)NCCC4)n2C)cc1F` (single isomer, unassigned) [Example 167, 3-(3-fluoro-4-methoxyphenyl)-3-(1-methyl-5-(4-(5,6,7,8-tetrahydro-1,8-naphthyridin-2-yl)butyl)-1H-imidazol-2-yl)propanoic acid], for which the IC50 was determined as 27 nM.

For `CN(C)C(=O)c1ccc(C(CC(=O)O)c2nc(CCCCc3ccc4c(n3)NCCC4)cs2)cc1F` (single isomer, unassigned) [Example 132, 3-(4-(dimethylcarbamoyl)-3-fluorophenyl)-3-(4-(4-(5,6,7,8-tetrahydro-1,8-naphthyridin-2-yl)butyl)thiazol-2-yl)propanoic acid], the IC50 worked out at 81 nM.

`CCOc1ncc(C(CC(=O)O)c2nc(CCCCc3ccc4c(n3)NCCC4)cs2)cn1` (single isomer, unassigned) [Example 130, 3-(2-ethoxypyrimidin-5-yl)-3-(4-(4-(5,6,7,8-tetrahydro-1,8-naphthyridin-2-yl)butyl)thiazol-2-yl)propanoic acid]: the IC50 came to 2.9 nM.

On to `Cc1ncc(C(CC(=O)O)n2nccc2CCC[C@@H]2CCc3cccnc3N2)cn1` (mixture of isomers) [Example 91, 3-(2-methylpyrimidin-5-yl)-3-(5-(3-((R)-1,2,3,4-tetrahydro-1,8-naphthyridin-2-yl)propyl)-1H-pyrazol-1-yl)propanoic acid], for which the IC50 came out at 1400 nM.

Turning to `CN(C)C(=O)c1ccc(C(CC(=O)O)c2nc(CCCc3ccc4c(n3)NCCC4)cs2)cc1` (single isomer, unassigned) [Example 138, 3-(4-(dimethylcarbamoyl)phenyl)-3-(4-(3-(5,6,7,8-tetrahydro-1,8-naphthyridin-2-yl)propyl)thiazol-2-yl)propanoic acid], the concentration for half-maximal inhibition (IC50) came to 4 nM.

For the compound `O=C(O)CCCNc1cc(C(CC(=O)O)n2nccc2CCCc2ccc3c(n2)NCCC3)ccn1` (racemic) [Example 79, (±)-4-{[4-(2-carboxy-1-{5-[3-(5,6,7,8-tetrahydro-1,8-naphthyridin-2-yl)propyl]-1H-pyrazol-1-yl}ethyl)pyridin-2-yl]amino}butanoic acid], the IC50 was determined as 300 nM.

Consider `CCOc1ncc([C@H](CC(=O)O)n2ccc(CCCc3ccc4c(n3)NCCC4)n2)cn1` [Example 56, (S)-3-(2-Ethoxypyrimidin-5-yl)-3-(3-(3-(5,6,7,8-tetrahydro-1,8-naphthyridin-2-yl)propyl)-1H-pyrazol-1-yl)propanoic acid], for which the concentration for half-maximal inhibition (IC50) was found to be 7.1 nM.

Consider `Cc1ncc([C@H](CC(=O)O)n2ccc(CCC[C@@H]3CCc4cccnc4N3)n2)cn1` [Example 88, (S)-3-(2-methylpyrimidin-5-yl)-3-(3-(3-((R)-1,2,3,4-tetrahydro-1,8-naphthyridin-2-yl)propyl)-1H-pyrazol-1-yl)propanoic acid], for which the IC50 is 170 nM.

In the case of `COc1ccc(C(CC(=O)O)n2nccc2CCCc2ccc3c(n2)NCCC3)nn1` (racemic) [Example 58, (±)-3-(6-Methoxypyridazin-3-yl)-3-(5-(3-(5,6,7,8-tetrahydro-1,8-naphthyridin-2-yl)propyl)-1H-pyrazol-1-yl)propanoic acid], the IC50 came out at 2100 nM.

For the compound `COc1ccc(C(CC(=O)O)c2nc(CCCC3CCc4cccnc4N3)cs2)cn1` (single isomer, unassigned) [Example 156, 3-(6-methoxypyridin-3-yl)-3-(4-(3-(1,2,3,4-tetrahydro-1,8-naphthyridin-2-yl)propyl)thiazol-2-yl)propanoic acid], the IC50 worked out at 260 nM.

For the compound `COc1ccc(C(CC(=O)O)n2ccc(CCCc3ccc4c(n3)NCCCC4)n2)cn1` (single isomer, unassigned) [Example 102, 3-(6-methoxypyridin-3-yl)-3-(3-(3-(6,7,8,9-tetrahydro-5H-pyrido[2,3-b]azepin-2-yl)propyl)-1H-pyrazol-1-yl)propanoic acid], the IC50 came to 150 nM.

As for `O=C(O)CC(c1ccc2nccnc2c1)c1nc(CCCCc2ccc3c(n2)NCCC3)cs1` (single isomer, unassigned) [Example 119, 3-(quinoxalin-6-yl)-3-(4-(4-(5,6,7,8-tetrahydro-1,8-naphthyridin-2-yl)butyl)thiazol-2-yl)propanoic acid], the IC50 was determined as 99 nM.

Consider `COc1ncc(C(CC(=O)O)n2ccc(CCCc3ccc4c(n3)NCCCC4)n2)cn1` (single isomer, unassigned) [Example 104, 3-(2-methoxypyrimidin-5-yl)-3-(3-(3-(6,7,8,9-tetrahydro-5H-pyrido[2,3-b]azepin-2-yl)propyl)-1H-pyrazol-1-yl)propanoic acid], for which the IC50 is 10 nM.

For `O=C(NC(Cc1cnn(CCCc2ccc3c(n2)NCCC3)c1)C(=O)O)OCc1ccccc1` (racemic) [Example 6, (±)-2-(((Benzyloxy)carbonyl)amino)-3-(1-(3-(5,6,7,8-tetrahydro-1,8-naphthyridin-2-yl)propyl)-1N-pyrazol-4-yl)propanoic acid], the IC50 came out at 80 nM.

With `COc1ncc(C(CC(=O)O)n2nccc2CCCc2ccc3c(n2)NCCCC3)cn1` (racemic) [Example 106, (±)-3-(2-methoxypyrimidin-5-yl)-3-(5-(3-(6,7,8,9-tetrahydro-5H-pyrido[2,3-b]azepin-2-yl)propyl)-1H-pyrazol-1-yl)propanoic acid], the IC50 was determined as 820 nM.

With `COc1ccc(C(CC(=O)O)c2nc(CCCCc3ccc4c(n3)NCCC4)cn2C)cc1F` (single isomer, unassigned) [Example 169, 3-(3-fluoro-4-methoxyphenyl)-3-(1-methyl-4-(4-(5,6,7,8-tetrahydro-1,8-naphthyridin-2-yl)butyl)-1H-imidazol-2-yl)propanoic acid], the IC50 amounted to 67 nM.

For `COc1ccc(C(CC(=O)O)c2nc(CCCCc3ccc4c(n3)NCCC4)c(C)o2)cc1F` (single isomer, unassigned) [Example 180, 3-(3-fluoro-4-methoxyphenyl)-3-(5-methyl-4-(4-(5,6,7,8-tetrahydro-1,8-naphthyridin-2-yl)butyl)oxazol-2-yl)propanoic acid], the IC50 is 250 nM.

On to `COc1ccc(C(CC(=O)O)c2cc(CCCc3ccc4c(n3)NCCC4)c[nH]2)cc1F` (racemic) [Example 10, (±)-3-(3-Fluoro-4-methoxyphenyl)-3-(4-(3-(5,6,7,8-tetrahydro-1,8-naphthyridin-2-yl)propyl)-1H-pyrrol-2-yl)propanoic acid], for which the IC50 was determined as 136 nM.

For `O=C(O)C[C@@H](c1ccc(OCC2CC2)nc1)n1ccc(CCCc2ccc3c(n2)NCCC3)n1` [Example 112, (S)-3-(6-(cyclopropylmethoxy)pyridin-3-yl)-3-(3-(3-(5,6,7,8-tetrahydro-1,8-naphthyridin-2-yl)propyl)-1H-pyrazol-1-yl)propanoic acid], the IC50 worked out at 3.5 nM.

On to `O=C(O)CC(c1cccc(N2CCOCC2)c1)c1nc(CCCCc2ccc3c(n2)NCCC3)cs1` (single isomer, unassigned) [Example 125, 3-(3-morpholinophenyl)-3-(4-(4-(5,6,7,8-tetrahydro-1,8-naphthyridin-2-yl)butyl)thiazol-2-yl)propanoic acid], for which the IC50 was 180 nM.

For the compound `CCOc1ncc([C@@H](CC(=O)O)n2ccc(CCCc3ccc4c(n3)NCCC4)n2)cn1` [Example 81, (R)-3-(2-ethoxypyrimidin-5-yl)-3-(3-(3-(5,6,7,8-tetrahydro-1,8-naphthyridin-2-yl)propyl)-1H-pyrazol-1-yl)propanoic acid], the half-inhibitory concentration (IC50) stood at 480 nM.

In the case of `CN(C)c1ccc(C(CC(=O)O)c2nc(CCCCc3ccc4c(n3)NCCC4)cs2)cn1` (single isomer, unassigned) [Example 122, 3-(6-(dimethylamino)pyridin-3-yl)-3-(4-(4-(5,6,7,8-tetrahydro-1,8-naphthyridin-2-yl)butyl)thiazol-2-yl)propanoic acid], the IC50 is 3.5 nM.

Turning to `COc1ncc(C(CC(=O)O)c2nc(CCCc3ccc4c(n3)NCCC4)cs2)cn1` (stereo not shown) [Example 145, 3-(2-methoxypyrimidin-5-yl)-3-(4-(3-(5,6,7,8-tetrahydro-1,8-naphthyridin-2-yl)propyl)thiazol-2-yl)propanoic acid], the IC50 is 4.5 nM.
